Test results reported in US4359458A, “O-β. -D (and O-α.. -D) Multigalactopyranosyl, xylopyranosyl and glucopyranosyl sulfate salts” (American Cyanamid Company, priority 1981, dated 1982).
Structures can show the parent of a compound that is named as a salt.

Columns and labels:
activated human C1 = activated human C1 (Homo sapiens, UniProt P09871); assay: Test Code 026 (C1 inhibitor); assay type: biochemical; details: serial dilution assay, twofold dilutions; higher well number indicates higher activity
Excerpt: (§1) An active inhibitor protects C2 from C1 and C4; (ii) Test Code 035 (C3-C9 inhibitor)--This test determines the ability of the late components of human complement (C3-C9) to lyse EAC 142 in the presence of appropriate dilutions of the test compound. An active inhibitor protects EAC 142 from lysis by human C3-C9; (iii) Test Code 036 (C-Shunt inhibitor)--In this test human erythrocytes rendered fragile are lysed in autologous serum via the shunt pathway activated by cobra venom factor in the presence of appropriate dilutions of the test compound. Inhibition of the shunt pathway results in failure of lysis; (iv) Cap 50 Test--Here, appropriate amounts of the test compound are added to a pool of guinea pig serum in vitro, after which the undiluted serum capillary tube assay of U.S. Pat. No. 3,876,376 is run. The concentration of compound inhibiting 50% is reported; and (v) Guinea Pig Intraperitoneal Test (GPIP)--Guinea pigs weighing about 300 g are dosed intraperitoneally (i.p.) with 200 mg/kg of the test compound dissolved in saline and adjusted to pH 7-8. Approximately 0.4 ml blood samples, taken by orbital sinus puncture 30 minutes and one hour after injections, are collected directly into centrifuge tubes; 5 ml blood samples, taken by decapitation 2 hours after injection are collected directly into beakers. The samples are allowed to clot, centrifuged, and the resultant sera are assayed for complement activity using the capillary complement assay. Percent inhibition is calculated by comparison with simultaneous controls. The results of the GPIP appear in Table I together with results of test code 026, 035, 036 and Cap 50.

[1] = tested on: late components of human complement (C3-C9); assay: Test Code 035 (C3-C9 inhibitor); assay type: biochemical; details: serial dilution assay, twofold dilutions; higher well number indicates higher activity; N = Negative
Excerpt: as §1

[2] = tested on: shunt pathway activated by cobra venom factor; assay: Test Code 036 (C-Shunt inhibitor); assay type: cell-based, human; details: serial dilution assay, twofold dilutions; higher well number indicates higher activity; N = Negative
Excerpt: as §1

For O=S(=O)(O)OC[C@H]1O[C@@H](OC[C@H]2O[C@H](O[C@H]3O[C@H](CO[C@@H]4O[C@H](COS(=O)(=O)O)[C@@H](O[C@H]5O[C@H](COS(=O)(=O)O)[C@@H](O[C@H]6O[C@H](COS(=O)(=O)O)[C@@H](OS(=O)(=O)O)[C@H](OS(=O)(=O)O)[C@H]6OS(=O)(=O)O)[C@H](OS(=O)(=O)O)[C@H]5OS(=O)(=O)O)[C@H](OS(=O)(=O)O)[C@H]4OS(=O)(=O)O)[C@@H](OS(=O)(=O)O)[C@H](OS(=O)(=O)O)[C@H]3OS(=O)(=O)O)[C@H](OS(=O)(=O)O)[C@@H](OS(=O)(=O)O)[C@@H]2OS(=O)(=O)O)[C@H](OS(=O)(=O)O)[C@@H](OS(=O)(=O)O)[C@@H]1O[C@H]1O[C@H](COS(=O)(=O)O)[C@@H](O[C@H]2O[C@H](COS(=O)(=O)O)[C@@H](OS(=O)(=O)O)[C@H](OS(=O)(=O)O)[C@H]2OS(=O)(=O)O)[C@H](OS(=O)(=O)O)[C@H]1OS(=O)(=O)O [drawing 17, Glc 1α,4 glc 1α,4 glc 1β,6 glc 1α,1α' glc 1β,6 glc 1α,4 glc 1α,4 glc, hexacosakis (H-sulfate), hexacosasalt with trimethylamine], the “Cl 026 Wells” value (activated human C1) was 9 Wells, the “C-Late 035 Wells” value [1] was 1 Wells and the “C-Shunt Inhibition 036 Wells” value [2] was 6 Wells.

With O=S(=O)(O)OC[C@H]1O[C@@H](OC[C@H]2O[C@H](O[C@H]3O[C@H](CO[C@@H]4O[C@H](COS(=O)(=O)O)[C@@H](O[C@H]5O[C@H](COS(=O)(=O)O)[C@@H](O[C@H]6O[C@H](COS(=O)(=O)O)[C@@H](OS(=O)(=O)O)[C@H](OS(=O)(=O)O)[C@H]6OS(=O)(=O)O)[C@H](OS(=O)(=O)O)[C@H]5OS(=O)(=O)O)[C@H](OS(=O)(=O)O)[C@H]4OS(=O)(=O)O)[C@@H](OS(=O)(=O)O)[C@H](OS(=O)(=O)O)[C@H]3OS(=O)(=O)O)[C@H](OS(=O)(=O)O)[C@@H](OS(=O)(=O)O)[C@@H]2OS(=O)(=O)O)[C@H](OS(=O)(=O)O)[C@@H](OS(=O)(=O)O)[C@@H]1O[C@H]1O[C@H](COS(=O)(=O)O)[C@@H](O[C@H]2O[C@H](COS(=O)(=O)O)[C@@H](OS(=O)(=O)O)[C@H](OS(=O)(=O)O)[C@H]2OS(=O)(=O)O)[C@H](OS(=O)(=O)O)[C@H]1OS(=O)(=O)O [drawing 19, Glc 1α,4 glc 1α,4 glc 1β,6 glc 1α,1α' glc 1β,6 glc 1α,4 glc 1α,4 glc, hexacosakis (H-sulfate), hexacosasodium salt] the “Cl 026 Wells” value (activated human C1) was 9 Wells, the “C-Late 035 Wells” value [1] was 1 Wells and the “C-Shunt Inhibition 036 Wells” value [2] was 6 Wells.

For O=S(=O)(O)OC[C@H]1O[C@@H](OC[C@H]2O[C@H](O[C@H]3O[C@H](CO[C@@H]4O[C@H](COS(=O)(=O)O)[C@@H](O[C@H]5O[C@H](COS(=O)(=O)O)[C@@H](O[C@H]6O[C@H](COS(=O)(=O)O)[C@@H](O[C@H]7O[C@H](COS(=O)(=O)O)[C@@H](O[C@H]8O[C@H](COS(=O)(=O)O)[C@@H](O[C@H]9O[C@H](COS(=O)(=O)O)[C@@H](O[C@H]%10O[C@H](COS(=O)(=O)O)[C@@H](OS(=O)(=O)O)[C@H](OS(=O)(=O)O)[C@H]%10OS(=O)(=O)O)[C@H](OS(=O)(=O)O)[C@H]9OS(=O)(=O)O)[C@H](OS(=O)(=O)O)[C@H]8OS(=O)(=O)O)[C@H](OS(=O)(=O)O)[C@H]7OS(=O)(=O)O)[C@H](OS(=O)(=O)O)[C@H]6OS(=O)(=O)O)[C@H](OS(=O)(=O)O)[C@H]5OS(=O)(=O)O)[C@H](OS(=O)(=O)O)[C@H]4OS(=O)(=O)O)[C@@H](OS(=O)(=O)O)[C@H](OS(=O)(=O)O)[C@H]3OS(=O)(=O)O)[C@H](OS(=O)(=O)O)[C@@H](OS(=O)(=O)O)[C@@H]2OS(=O)(=O)O)[C@H](OS(=O)(=O)O)[C@@H](OS(=O)(=O)O)[C@@H]1O[C@H]1O[C@H](COS(=O)(=O)O)[C@@H](O[C@H]2O[C@H](COS(=O)(=O)O)[C@@H](O[C@H]3O[C@H](COS(=O)(=O)O)[C@@H](O[C@H]4O[C@H](COS(=O)(=O)O)[C@@H](O[C@H]5O[C@H](COS(=O)(=O)O)[C@@H](O[C@H]6O[C@H](COS(=O)(=O)O)[C@@H](OS(=O)(=O)O)[C@H](OS(=O)(=O)O)[C@H]6OS(=O)(=O)O)[C@H](OS(=O)(=O)O)[C@H]5OS(=O)(=O)O)[C@H](OS(=O)(=O)O)[C@H]4OS(=O)(=O)O)[C@H](OS(=O)(=O)O)[C@H]3OS(=O)(=O)O)[C@H](OS(=O)(=O)O)[C@H]2OS(=O)(=O)O)[C@H](OS(=O)(=O)O)[C@H]1OS(=O)(=O)O [drawing 21, Glc 1α,4 (glc 1α,4)5 glc 1β,6 glc 1α,1α'glc 1β,6 glc (glc 1α,4)5 1α,4 glc, pentacontakis (H-sulfate), pentacontasalt with trimethylamine], the “Cl 026 Wells” value (activated human C1) was 10 Wells, the “C-Late 035 Wells” value [1] was “N” and the “C-Shunt Inhibition 036 Wells” value [2] was 5 Wells.

With O=S(=O)(O)OC[C@H]1O[C@@H](OC[C@H]2O[C@H](O[C@H]3O[C@H](CO[C@@H]4O[C@H](COS(=O)(=O)O)[C@@H](O[C@H]5O[C@H](COS(=O)(=O)O)[C@@H](O[C@H]6O[C@H](COS(=O)(=O)O)[C@@H](O[C@H]7O[C@H](COS(=O)(=O)O)[C@@H](O[C@H]8O[C@H](COS(=O)(=O)O)[C@@H](O[C@H]9O[C@H](COS(=O)(=O)O)[C@@H](O[C@H]%10O[C@H](COS(=O)(=O)O)[C@@H](OS(=O)(=O)O)[C@H](OS(=O)(=O)O)[C@H]%10OS(=O)(=O)O)[C@H](OS(=O)(=O)O)[C@H]9OS(=O)(=O)O)[C@H](OS(=O)(=O)O)[C@H]8OS(=O)(=O)O)[C@H](OS(=O)(=O)O)[C@H]7OS(=O)(=O)O)[C@H](OS(=O)(=O)O)[C@H]6OS(=O)(=O)O)[C@H](OS(=O)(=O)O)[C@H]5OS(=O)(=O)O)[C@H](OS(=O)(=O)O)[C@H]4OS(=O)(=O)O)[C@@H](OS(=O)(=O)O)[C@H](OS(=O)(=O)O)[C@H]3OS(=O)(=O)O)[C@H](OS(=O)(=O)O)[C@@H](OS(=O)(=O)O)[C@@H]2OS(=O)(=O)O)[C@H](OS(=O)(=O)O)[C@@H](OS(=O)(=O)O)[C@@H]1O[C@H]1O[C@H](COS(=O)(=O)O)[C@@H](O[C@H]2O[C@H](COS(=O)(=O)O)[C@@H](O[C@H]3O[C@H](COS(=O)(=O)O)[C@@H](O[C@H]4O[C@H](COS(=O)(=O)O)[C@@H](O[C@H]5O[C@H](COS(=O)(=O)O)[C@@H](O[C@H]6O[C@H](COS(=O)(=O)O)[C@@H](OS(=O)(=O)O)[C@H](OS(=O)(=O)O)[C@H]6OS(=O)(=O)O)[C@H](OS(=O)(=O)O)[C@H]5OS(=O)(=O)O)[C@H](OS(=O)(=O)O)[C@H]4OS(=O)(=O)O)[C@H](OS(=O)(=O)O)[C@H]3OS(=O)(=O)O)[C@H](OS(=O)(=O)O)[C@H]2OS(=O)(=O)O)[C@H](OS(=O)(=O)O)[C@H]1OS(=O)(=O)O [drawing 23, Glc 1α,4 (glc 1α,4)5 glc 1β,6 glc 1α,1α'glc 1β,6 glc (glc 1α,4)5 1α,4 glc, pentacontakis (H-sulfate), pentacontasodium salt] the “Cl 026 Wells” value (activated human C1) was 9 Wells, the “C-Late 035 Wells” value [1] was 2 Wells and the “C-Shunt Inhibition 036 Wells” value [2] was 6 Wells.

In the case of O=S(=O)(O)OC[C@H]1O[C@@H](OC[C@H]2O[C@H](O[C@H]3O[C@H](COS(=O)(=O)O)[C@@H](OS(=O)(=O)O)[C@H](OS(=O)(=O)O)[C@H]3OS(=O)(=O)O)[C@H](OS(=O)(=O)O)[C@@H](OS(=O)(=O)O)[C@@H]2OS(=O)(=O)O)[C@H](OS(=O)(=O)O)[C@@H](OS(=O)(=O)O)[C@@H]1O[C@H]1O[C@H](COS(=O)(=O)O)[C@@H](O[C@H]2O[C@H](COS(=O)(=O)O)[C@@H](O[C@H]3O[C@H](COS(=O)(=O)O)[C@@H](O[C@H]4O[C@H](COS(=O)(=O)O)[C@@H](O[C@H]5O[C@H](COS(=O)(=O)O)[C@@H](O[C@H]6O[C@H](COS(=O)(=O)O)[C@@H](OS(=O)(=O)O)[C@H](OS(=O)(=O)O)[C@H]6OS(=O)(=O)O)[C@H](OS(=O)(=O)O)[C@H]5OS(=O)(=O)O)[C@H](OS(=O)(=O)O)[C@H]4OS(=O)(=O)O)[C@H](OS(=O)(=O)O)[C@H]3OS(=O)(=O)O)[C@H](OS(=O)(=O)O)[C@H]2OS(=O)(=O)O)[C@H](OS(=O)(=O)O)[C@H]1OS(=O)(=O)O [drawing 25, Glc 1α,4 (glc 1α,4)5 glc 1β,6 glc 1α,1α'glc, nonacosakis (H-sulfate), nonacosasalt with trimethylamine], the “Cl 026 Wells” value (activated human C1) is reported as 9 Wells, the “C-Late 035 Wells” value [1] is reported as “N” and the “C-Shunt Inhibition 036 Wells” value [2] is reported as 5 Wells.

For O=S(=O)(O)OC[C@H]1O[C@@H](OC[C@H]2O[C@H](O[C@H]3O[C@H](COS(=O)(=O)O)[C@@H](OS(=O)(=O)O)[C@H](OS(=O)(=O)O)[C@H]3OS(=O)(=O)O)[C@H](OS(=O)(=O)O)[C@@H](OS(=O)(=O)O)[C@@H]2OS(=O)(=O)O)[C@H](OS(=O)(=O)O)[C@@H](OS(=O)(=O)O)[C@@H]1O[C@H]1O[C@H](COS(=O)(=O)O)[C@@H](O[C@H]2O[C@H](COS(=O)(=O)O)[C@@H](O[C@H]3O[C@H](COS(=O)(=O)O)[C@@H](O[C@H]4O[C@H](COS(=O)(=O)O)[C@@H](O[C@H]5O[C@H](COS(=O)(=O)O)[C@@H](O[C@H]6O[C@H](COS(=O)(=O)O)[C@@H](OS(=O)(=O)O)[C@H](OS(=O)(=O)O)[C@H]6OS(=O)(=O)O)[C@H](OS(=O)(=O)O)[C@H]5OS(=O)(=O)O)[C@H](OS(=O)(=O)O)[C@H]4OS(=O)(=O)O)[C@H](OS(=O)(=O)O)[C@H]3OS(=O)(=O)O)[C@H](OS(=O)(=O)O)[C@H]2OS(=O)(=O)O)[C@H](OS(=O)(=O)O)[C@H]1OS(=O)(=O)O [drawing 26, glc 1α,4 (glc 1α,4)5 glc 1β,6 glc 1α,1α'glc, nonacosakis (H-sulfate), nonacosasodium salt], the “Cl 026 Wells” value (activated human C1) was 10 Wells, the “C-Late 035 Wells” value [1] was 1 Wells and the “C-Shunt Inhibition 036 Wells” value [2] was 6 Wells.
